In one series the target is T1, FXR (Homo sapiens, UniProt Q96RI1).
T1 construct: expressed in transfected cells; host or cells: HEK293T
T1 sequence (Q96RI1 212-476 isoform Q96RI1-1): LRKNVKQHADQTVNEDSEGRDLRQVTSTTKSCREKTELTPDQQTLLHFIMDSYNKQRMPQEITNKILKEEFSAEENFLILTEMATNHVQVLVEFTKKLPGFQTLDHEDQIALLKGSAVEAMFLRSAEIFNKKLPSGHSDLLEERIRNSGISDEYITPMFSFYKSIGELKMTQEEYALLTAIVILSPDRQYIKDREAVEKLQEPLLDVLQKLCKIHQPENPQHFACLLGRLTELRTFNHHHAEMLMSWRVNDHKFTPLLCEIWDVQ
The series can be described thus: FXR agonistic activity by reporter gene (pGAL4-FXR-LBD / pG5-Luc, Dual-Glo luciferase) in HEK293T cells. The series is classed as cell-based. As to the method: 1.2 Plasmid Co-transfection of HEK293T Cells and Compound Treatment HEK293T cells were seeded in 96-well plates at a density of 1×10^4/well one day before plasmid transfection. […] 2 duplicate wells were set up in total. […] The dose-response curves were fitted with four parameters using GraphPad Prism 6.0 software, and EC50 values were calculated.

For series [1] the following is noted: mouse, in vivo, iv, 1 mg/kg.
Method: (§1) In each group of embodiment, 6 male ICR mice with a similar body weight were selected, of which 3 mice were dosed orally in a single dose of 3 mg/kg, and 3 mice were dosed intravenously in a single dose of 1 mg/kg. Blood samples were collected at time points of 15 min, 30 min, 1 h, 2 h, 4 h and 7 h after administration. The concentrations of plasma samples were analyzed by LC-MS/MS.
(§2) 12 healthy male ICR mice, commercially available from Charles River with an animal production license NO.: 2021123 1Abzz0619000376, were divided into 4 groups, 3 in each group.
(§3) Formulation preparation: a certain amount of compounds were weighed and added into a 2% DMSO+15% Solutol+83% saline, to prepare a clear solution.
(§4) Dosage: ICR mice were fasted overnight and given each compound at an oral dose of 3 mg/kg or an intravenous dose of 1 mg/kg. The administrated volume for oral and intravenous administration are 10 mL/kg and 5 mL/kg, respectively.
(§5) Sample collection: About 30 µL of blood was collected via great saphenous vein at 15 min, 30 min, 1 h, 2 h, 4 h and 7 h after dosage. The blood was placed into a commercial tube containing K2-EDTA. Plasma samples were then obtained by centrifuging the blood samples at approximately 4°C, 4600 rpm for 5 minutes. All plasma samples were then quickly frozen on dry ice and kept at -70°C until LC-MS/MS analysis.
(§6) Sample preparation: 10 µL of plasma samples were precipitated by methanol containing 50 nmol/L of α-naphthoflavone as internal standard. The mixture was votex-mixed well and centrifuged at 14000 rpm for 5 min at 4°C. 75 µL of the supernatant was taken and mixed with 75 µL of methanol, and introduced for LC-MS/MS analysis.
Another series is described as follows: in vivo. The conditions noted are these: mouse, po, 3 mg/kg.
Where [2] appears, read: Cellular Level Activity EC50(nM) of FXR, HEK293T cells co-transfected with pGAL4-FXR-LBD, pG5-Luc, phRL-TK, 24 h treatment.
Setting [3] is: HEK293T cells co-transfected with pGAL4-FXR-LBD, pG5-Luc, phRL-TK, 24 h treatment, read-out: Cellular Level Activity EC50(nM) of FXR.
The mark [4] stands for this setting: HEK293T reporter gene assay, read-out: EC50 values (FXR agonistic activity).
Setting [5] is: EC50 values (FXR agonistic activity), HEK293T reporter gene assay.

Where two headings read alike, the source gives them in different places.

Method for in vivo: as §1, §2, §3, §4, §5, §6

As for `O=c1[nH]c(-c2ccc(N3[C@@H]4CC[C@H]3C[C@@H](OCc3c(-c5c(Cl)cccc5Cl)noc3C3CC3)C4)cc2F)no1` [Control 1, reference compound], the EC50 – broadly, the midpoint of the concentration-response curve – on FXR (setting [2]) is 5 to 10 nM.

Regarding `O=c1[nH]c(-c2ccc(N3C4CCC3CC(OCc3c(-c5ccccc5C(F)(F)F)noc3C3CC3)C4)cc2F)no1` (stereo not shown) [Embodime nt 1], in series [1], the “CL_obs” value worked out at 20.5 ± 4.6 mL/min/kg and the “Vss_obs” value was found to be 0.418 ± 0.076 L/kg. In addition, in the series “in vivo”, the AUC(0-t) (in general, exposure summed from dosing to a finite time, without extrapolation to infinity) at 7 h came out at 318 ± 172 ng·h/mL; the Cmax (commonly the highest concentration seen after dosing) came to 312 ± 140 ng/mL; the bioavailability (as a rule, the share of a dose that reaches the circulation, judged against a reference dose that is usually intravenous) amounted to 12.6%.

Take `[2H]C([2H])(O[C@H]1C[C@H]2CC[C@@H](C1)N2c1ccc(-c2noc(=O)[nH]2)c(F)c1)c1c(-c2ccccc2C(F)(F)F)noc1C1CC1` [Embodime nt 2]: in series [1], the “CL_obs” value is 21.6 ± 2.4 mL/min/kg and the “Vss_obs” value worked out at 0.704 ± 0.033 L/kg. In the series “in vivo”, this compound gave an AUC(0-t) at 7 h of 587 ± 54 ng·h/mL, a Cmax of 555 ± 25 ng/mL and a bioavailability of 25.2%.

In the case of `[2H]C([2H])(OC1CC2CCC(C1)N2c1ccc(-c2noc(=O)[nH]2)cc1)c1c(-c2c(Cl)cccc2Cl)noc1C1CC1` (stereo not shown) [Example 1], the EC50 at FXR (setting [3]) and at FXR (setting [4]) was < 5 nM in each case.

Take `[2H]C([2H])(OC1CC2CCC(C1)N2c1ccc(-c2noc(=O)[nH]2)nc1)c1c(-c2c(Cl)cccc2Cl)noc1C1CC1` (stereo not shown) [Example 2]: the EC50 on FXR (setting [3]) and at FXR (setting [4]) was < 5 nM each time.

On to `[2H]C([2H])(OC1CC2CCC(C1)N2c1ccc(-c2noc(=O)[nH]2)c(F)c1)c1c(-c2c(Cl)cccc2Cl)noc1C1CC1` (stereo not shown) [Example 3], for which the half-maximal effective concentration (EC50) on FXR (setting [2]) and on FXR (setting [5]) was < 5 nM in each case. The “FXR agonistic activity / cellular level activity (in words)” value on FXR (HEK293T reporter gene assay, comparison with LJN452 and Control 1) is “significantly improved activity”.

Turning to `[2H]C(OC1CC2CCC(C1)N2c1ccc(-c2noc(=O)[nH]2)c(F)c1)c1c(-c2c(Cl)cccc2Cl)noc1C1CC1` (stereo not shown) [Example 4], the EC50 at FXR (setting [2]) and at FXR (setting [5]) was < 5 nM in each case.

`[2H]C([2H])(OC1CC2CCC(C1)N2c1ccc(-c2noc(=O)[nH]2)c(C)c1)c1c(-c2c(Cl)cccc2Cl)noc1C1CC1` (stereo not shown) [Example 5]: the 50% effective concentration (EC50) on FXR (setting [3]) lay within 5 to 10 nM.

Regarding `[2H]C([2H])(OC1CC2CCC(C1)N2c1ccc(-c2noc(=O)[nH]2)c(OC)c1)c1c(-c2c(Cl)cccc2Cl)noc1C1CC1` (stereo not shown) [Example 6], the EC50 on FXR (setting [3]) was 5 to 10 nM.

Turning to `[2H]C([2H])(OC1CC2CCC(C1)N2c1ccc(-c2noc(=O)[nH]2)c(C(F)(F)F)c1)c1c(-c2c(Cl)cccc2Cl)noc1C1CC1` (stereo not shown) [Example 7], on FXR (setting [3]), the EC50 was in the range of 5 to 10 nM.

As to `[2H]C([2H])(OC1CC2CCC(C1)N2c1ccc(-c2noc(=O)[nH]2)c(F)c1)c1c(-c2ccccc2C(F)(F)F)noc1C1CC1` (stereo not shown) [Example 8], at FXR (setting [3]), the EC50 fell in the range of 5 to 10 nM.

With `[2H]C([2H])(OC1CC2CCC(C1)N2c1ccc(-c2noc(=O)[nH]2)c(F)c1)c1c(-c2ccccc2OC(F)(F)F)noc1C1CC1` (stereo not shown) [Example 9], the EC50 at FXR (setting [3]) was 5 to 10 nM.

Values taken from EP4245365B1, “A FXR SMALL MOLECULE AGONIST, THE PREPARATION AND USE THEREOF” (Cascade Pharmaceuticals, Inc., priority 2022, dated 2023).
